Measurements as given in PubChem BioAssay (NCI).
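Interpolation was linear, between the two tested concentrations surrounding the appropriate level; five concentrations were tested over 48 hours in 96-well plates. GI50 = concentration required for 50% inhibition of growth. At the TGI there is no net growth.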

Legend:
Assay in all cases: NCI-60 cell line screen, 48 h
786-0 renal = tested on: 786-0 renal
A498 renal = tested on: A498 renal
A549 NSCLC = tested on: A549 NSCLC
ACHN renal = tested on: ACHN renal
BT-549 breast = tested on: BT-549 breast
CAKI-1 renal = tested on: CAKI-1 renal
CCRF-CEM leukemia = tested on: CCRF-CEM leukemia
COLO 205 colon = tested on: COLO 205 colon
DU-145 prostate = tested on: DU-145 prostate
HCC-2998 colon = tested on: HCC-2998 colon
HCT-116 colon = tested on: HCT-116 colon
HCT-15 colon = tested on: HCT-15 colon
HL-60(TB) leukemia = tested on: HL-60(TB) leukemia
HOP-62 NSCLC = tested on: HOP-62 NSCLC
HOP-92 NSCLC = tested on: HOP-92 NSCLC
HS 578T breast = tested on: HS 578T breast
HT29 colon = tested on: HT29 colon
IGROV1 ovarian = tested on: IGROV1 ovarian
K-562 leukemia = tested on: K-562 leukemia
KM12 colon = tested on: KM12 colon
LOX IMVI melanoma = tested on: LOX IMVI melanoma
M14 melanoma = tested on: M14 melanoma
MALME-3M melanoma = tested on: MALME-3M melanoma
MCF7 breast = tested on: MCF7 breast
MDA-MB-231 breast = tested on: MDA-MB-231 breast
MDA-MB-435 = tested on: MDA-MB-435
MOLT-4 leukemia = tested on: MOLT-4 leukemia
NCI-H226 lung = tested on: NCI-H226 lung
NCI-H23 lung = tested on: NCI-H23 lung
NCI-H460 lung = tested on: NCI-H460 lung
NCI-H522 lung = tested on: NCI-H522 lung
NCI/ADR-RES ovarian = tested on: NCI/ADR-RES ovarian
OVCAR-3 ovarian = tested on: OVCAR-3 ovarian
OVCAR-4 ovarian = tested on: OVCAR-4 ovarian
OVCAR-5 ovarian = tested on: OVCAR-5 ovarian
OVCAR-8 ovarian = tested on: OVCAR-8 ovarian
PC-3 prostate = tested on: PC-3 prostate
RPMI-8226 leukemia = tested on: RPMI-8226 leukemia
RXF 393 renal = tested on: RXF 393 renal
SF-268 CNS = tested on: SF-268 CNS
SF-295 CNS = tested on: SF-295 CNS
SF-539 CNS = tested on: SF-539 CNS
SK-MEL-2 melanoma = tested on: SK-MEL-2 melanoma
SK-MEL-28 melanoma = tested on: SK-MEL-28 melanoma
SK-MEL-5 melanoma = tested on: SK-MEL-5 melanoma
SK-OV-3 ovarian = tested on: SK-OV-3 ovarian
SN12C renal = tested on: SN12C renal
SNB-19 CNS = tested on: SNB-19 CNS
SNB-75 CNS = tested on: SNB-75 CNS
SR leukemia = tested on: SR leukemia
SW-620 colon = tested on: SW-620 colon
T-47D breast = tested on: T-47D breast
TK-10 renal = tested on: TK-10 renal
U251 CNS = tested on: U251 CNS
UACC-62 melanoma = tested on: UACC-62 melanoma
UO-31 renal = tested on: UO-31 renal

Cc1[c-]onc1C.Cc1[c-]onc1C.[Ag].[Ag].[NH-]S(=O)(=O)c1ccc(N=Nc2cc(N=Nc3ccc(S([NH-])(=O)=O)cc3)c3c(NC(=O)C(Cl)Cl)cccc3c2OC(=O)C(Cl)Cl)cc1
GI50 (786-0 renal): 8.87 µM
TGI (786-0 renal): 16.4 µM
GI50 (A498 renal): 13 µM
TGI (A498 renal): 44.6 µM
GI50 (A549 NSCLC): 11 µM
TGI (A549 NSCLC): > 50 µM
GI50 (ACHN renal): 5.13 µM
TGI (ACHN renal): 11.9 µM
GI50 (BT-549 breast): 7.57 µM
TGI (BT-549 breast): 14.8 µM
GI50 (CAKI-1 renal): 7.12 µM
TGI (CAKI-1 renal): 14.2 µM
GI50 (CCRF-CEM leukemia): 9.28 µM
TGI (CCRF-CEM leukemia): 32.7 µM
GI50 (COLO 205 colon): 5.15 µM
TGI (COLO 205 colon): 30.4 µM
GI50 (DU-145 prostate): 7.38 µM
TGI (DU-145 prostate): 14.8 µM
GI50 (HCC-2998 colon): 10.9 µM
TGI (HCC-2998 colon): 26 µM
GI50 (HCT-116 colon): 5.12 µM
TGI (HCT-116 colon): 18.2 µM
GI50 (HCT-15 colon): 9.82 µM
TGI (HCT-15 colon): 32.1 µM
GI50 (HL-60(TB) leukemia): 11 µM
TGI (HL-60(TB) leukemia): 26.7 µM
GI50 (HOP-62 NSCLC): 16.8 µM
TGI (HOP-62 NSCLC): 38.9 µM
GI50 (HOP-92 NSCLC): 7.85 µM
TGI (HOP-92 NSCLC): 18.4 µM
GI50 (HS 578T breast): 5.81 µM
TGI (HS 578T breast): > 50 µM
GI50 (HT29 colon): 9.29 µM
TGI (HT29 colon): 21.7 µM
GI50 (IGROV1 ovarian): 6.53 µM
TGI (IGROV1 ovarian): 26.4 µM
GI50 (K-562 leukemia): 3.99 µM
TGI (K-562 leukemia): 32.2 µM
GI50 (KM12 colon): 7.44 µM
TGI (KM12 colon): 18.1 µM
GI50 (LOX IMVI melanoma): 7.75 µM
TGI (LOX IMVI melanoma): 18.3 µM
GI50 (M14 melanoma): 8.18 µM
TGI (M14 melanoma): 18.4 µM
GI50 (MALME-3M melanoma): 9.07 µM
TGI (MALME-3M melanoma): 21.2 µM
GI50 (MCF7 breast): 2.12 µM
TGI (MCF7 breast): > 50 µM
GI50 (MDA-MB-231 breast): 5.44 µM
TGI (MDA-MB-231 breast): 19.1 µM
GI50 (MDA-MB-435): 7.87 µM
TGI (MDA-MB-435): 16.3 µM
GI50 (MOLT-4 leukemia): 8.18 µM
TGI (MOLT-4 leukemia): 28.1 µM
GI50 (NCI-H226 lung): 12.6 µM
TGI (NCI-H226 lung): > 50 µM
GI50 (NCI-H23 lung): 8.3 µM
TGI (NCI-H23 lung): 22.8 µM
GI50 (NCI-H460 lung): 6.53 µM
TGI (NCI-H460 lung): 18.1 µM
GI50 (NCI-H522 lung): 1.75 µM
TGI (NCI-H522 lung): 14 µM
GI50 (NCI/ADR-RES ovarian): 21 µM
TGI (NCI/ADR-RES ovarian): > 50 µM
GI50 (OVCAR-3 ovarian): 7.6 µM
TGI (OVCAR-3 ovarian): 15.8 µM
GI50 (OVCAR-4 ovarian): 7.66 µM
TGI (OVCAR-4 ovarian): 15.1 µM
GI50 (OVCAR-5 ovarian): 9.92 µM
TGI (OVCAR-5 ovarian): 19 µM
GI50 (OVCAR-8 ovarian): 10.1 µM
TGI (OVCAR-8 ovarian): 36.4 µM
GI50 (PC-3 prostate): 6.82 µM
TGI (PC-3 prostate): > 50 µM
GI50 (RPMI-8226 leukemia): 9.27 µM
TGI (RPMI-8226 leukemia): 27.2 µM
GI50 (RXF 393 renal): 6.47 µM
TGI (RXF 393 renal): 15.6 µM
GI50 (SF-268 CNS): 8.78 µM
TGI (SF-268 CNS): 28.1 µM
GI50 (SF-295 CNS): 33.9 µM
TGI (SF-295 CNS): > 50 µM
GI50 (SF-539 CNS): 14.2 µM
TGI (SF-539 CNS): > 50 µM
GI50 (SK-MEL-2 melanoma): 6.89 µM
TGI (SK-MEL-2 melanoma): 15.9 µM
GI50 (SK-MEL-28 melanoma): 8.18 µM
TGI (SK-MEL-28 melanoma): 17 µM
GI50 (SK-MEL-5 melanoma): 1.71 µM
TGI (SK-MEL-5 melanoma): 6.07 µM
GI50 (SK-OV-3 ovarian): 9.66 µM
TGI (SK-OV-3 ovarian): 18.5 µM
GI50 (SN12C renal): 14.9 µM
TGI (SN12C renal): > 50 µM
GI50 (SNB-19 CNS): 7.38 µM
TGI (SNB-19 CNS): 16.9 µM
GI50 (SNB-75 CNS): 6.85 µM
TGI (SNB-75 CNS): 18.9 µM
GI50 (SR leukemia): 9.59 µM
TGI (SR leukemia): 42.5 µM
GI50 (SW-620 colon): 3.54 µM
TGI (SW-620 colon): 12.8 µM
GI50 (T-47D breast): 2.1 µM
TGI (T-47D breast): 17.4 µM
GI50 (TK-10 renal): 10 µM
TGI (TK-10 renal): 18.2 µM
GI50 (U251 CNS): 8.45 µM
TGI (U251 CNS): 18.8 µM
GI50 (UACC-62 melanoma): 7.36 µM
TGI (UACC-62 melanoma): 14.5 µM
GI50 (UO-31 renal): 6.06 µM
TGI (UO-31 renal): 12.8 µM
